Read-outs that look alike come from different tables or passages of the source.
Tested on: patients with advanced/metastatic solid tumors
Conditions: for TEAE: Upper respiratory tract infection / TEAE: Urinary tract infection: Module 1A
From the text: In this Phase I study (ClinicalTrials.gov: NCT03363893), male and female patients with locally advanced/metastatic solid tumors received samuraciclib in dose escalation cohorts (at least 3 and up to 6 evaluable patients permitted per dose cohort) to determine the MTD (see Supplementary Information for definition). An additional 6 to 12 male or female patients with breast cancer were enrolled to a paired biopsy cohort to evaluate the pharmacodynamic effects of samuraciclib in tumor tissue, initiated after determining the minimally biologically active dose, defined by a 25-30% reduction in signal for pPolII in lymphocytes after 21 days of dosing or more.
For inclusion in the paired biopsy cohort, only patients with breast cancer with lesions amenable to biopsy were recruited. A full list of inclusion/exclusion criteria is provided in the Supplementary Information.
Patients initially received an oral dose of samuraciclib at Cycle 0, Day 1 for PK evaluation, followed by a 48-hour interval then continuous daily dosing for 21 days (Cycle 1). Dosing continued in 21-day cycles until the patient no longer gained clinical benefit or had intolerable toxicity. At least 3 evaluable patients in a cohort had to complete Cycle 1 before any dose escalation was considered.
As Module 1A was a ‘first time in human’ safety study, initial efficacy was evaluated as a secondary endpoint using the DCR, defined as the percentage of patients with a complete response (CR), PR or stabilization of disease at first on treatment RECIST assessment. To allow for the evaluation of longer-term benefit, Module 1B-1 and Module 2A used the CBR as a secondary endpoint, defined as the percentage of patients with CR or PR or stabilization of disease for at least 24 weeks between enrollment and disease progression or death due to any cause. In addition, the ORR was assessed, defined as the percentage of patients who had at least 1 objective response (CR or PR) prior to any evidence of progression. […] Statistical analyses of PFS using the Kaplan-Meier method were performed on the ITT population - defined as all enrolled patients. AEs were summarized from the Safety Population - defined as all patients who received at least 1 dose of samuraciclib - using the MedDRA system organ class (SOC), preferred term (PT), and graded according to CTCAE V5.0 (Supplementary Information). […]
In the Module 1A dose escalation cohort, patients initially received 1 oral dose of samuraciclib at Cycle 0, Day 1. In the absence of a dose-limiting toxicity (DLT) and following a washout period of at least 48 hours, patients could then enter Cycle 1 and receive samuraciclib daily. In the continued absence of a DLT, each patient could continue to receive samuraciclib daily for a minimum of 21 days (Cycle 1) and could continue to receive additional 21-day cycles of treatment until they were no longer gaining […]
treatment visit was conducted (within 3 days after the last samuraciclib dose). An end of study visit was conducted 28 to 35 days after the last dose of samuraciclib.
At least 3 and up to 6 evaluable patients were required for each dose cohort. At least 3 evaluable patients in a cohort had to complete at least one 21-day cycle of dosing before a Safety Review Committee (SRC), composed of study site investigators and Sponsor medical personnel, could review and initiate the next cohort and dose escalation. Within the initial cohorts there was a staggered interval, with subsequent patients not being dosed until the first patient within each cohort had completed 7 days of samuraciclib monotherapy.
Patient enrolment in the dose escalation cohort proceeded according to a Bayesian model rolling 6 […]
2. If 1 patient experienced a DLT in a group of 3 or more evaluable patients, then the cohort was expanded to include 6 evaluable patients. […]
dose escalation occurred.
3. If at least 2 patients experienced a DLT in a cohort of up to 6 patients, irrespective of the number of […]

In the case of CC(C)c1cnn2c(NCc3ccccc3)cc(NC[C@H]3CCNC[C@@H]3O)nc12 [samuraciclib, Samuraciclib], the “TEAE: Upper respiratory tract infection” value (120 mg OD N=6) is reported as 5 (83.3) participants (%), the “TEAE: Urinary tract infection” value (120 mg OD N=6) is reported as 0 participants (%) and the “TEAE: Upper respiratory tract infection” value (240 mg OD N=12) is reported as 1 (8.3) participants (%). The “TEAE: Urinary tract infection” value (240 mg OD N=12) was 1 (8.3) participants (%), the “TEAE: Upper respiratory tract infection” value (360 mg OD N=12) was 1 (8.3) participants (%) and the “TEAE: Urinary tract infection” value (360 mg OD N=12) was 1 (8.3) participants (%). For the same molecule, the “TEAE: Upper respiratory tract infection” value (480 mg OD N=6) was 0 participants (%), the “TEAE: Urinary tract infection” value (480 mg OD N=6) was 1 (16.7) participants (%) and the “Lowest dose tested in humans that has demonstrated biological activity” value (OD) was 120 mg. For the same molecule, the “MBAD originally declared by the SRC” value (OD) was 240 mg, the Non-tolerated dose (OD in a fasted state) was 480 mg and the “ALT increased; All AEs” value (both, human, in vivo) was 8 (18.2) patients (%). For the same molecule, the “ALT increased; Grade ≥3” value (both, human, in vivo) was 1 (2.3) patients (%), the “AST increased; All AEs” value (both, human, in vivo) was 7 (15.9) patients (%) and the “AST increased; Grade ≥3” value (both, human, in vivo) was 0 patients (%). For the same molecule, the “Abdominal pain upper; All AEs” value (both, human, in vivo) was 4 (9.1) patients (%), the “Abdominal pain upper; Grade ≥3” value (both, human, in vivo) was 0 patients (%) and the “Abdominal pain; All AEs” value (both, human, in vivo) was 12 (27.3) patients (%). The “Abdominal pain; Grade ≥3” value (both, human, in vivo) was 0 patients (%), the “Anemia; All AEs” value (both, human, in vivo) was 10 (22.7) patients (%) and the “Anemia; Grade ≥3” value (both, human, in vivo) was 2 (4.5) patients (%). The “Any treatment-emergent AE; All AEs” value (both, human, in vivo) was 44 (100.0) patients (%), the “Any treatment-emergent AE; Grade ≥3” value (both, human, in vivo) was 21 (47.7) patients (%) and the “Back pain; All AEs” value (both, human, in vivo) was 6 (13.6) patients (%). The “Back pain; Grade ≥3” value (both, human, in vivo) was 0 patients (%), the “Constipation; All AEs” value (both, human, in vivo) was 7 (15.9) patients (%) and the “Constipation; Grade ≥3” value (both, human, in vivo) was 0 patients (%). The “Cough; All AEs” value (both, human, in vivo) was 8 (18.2) patients (%), the “Cough; Grade ≥3” value (both, human, in vivo) was 0 patients (%) and the “Decreased appetite; All AEs” value (both, human, in vivo) was 9 (20.5) patients (%). The “Decreased appetite; Grade ≥3” value (both, human, in vivo) was 1 (2.3) patients (%), the “Diarrhea; All AEs” value (both, human, in vivo) was 38 (86.4) patients (%) and the “Diarrhea; Grade ≥3” value (both, human, in vivo) was 2 (4.5) patients (%). For the same molecule, the “Dizziness; All AEs” value (both, human, in vivo) was 2 (4.5) patients (%), the “Dizziness; Grade ≥3” value (both, human, in vivo) was 0 patients (%) and the “Drug-related: ALT increased” value (both, human, in vivo) was 3 (6.8) participants (%). The “Drug-related: AST increased” value (both, human, in vivo) was 4 (9.1) participants (%), the “Drug-related: Abdominal pain” value (both, human, in vivo) was 8 (18.2) participants (%) and the “Drug-related: Abdominal pain upper” value (both, human, in vivo) was 2 (4.5) participants (%). The “Drug-related: Anaemia” value (both, human, in vivo) was 3 (6.8) participants (%), the “Drug-related: Blood creatinine increased” value (both, human, in vivo) was 3 (6.8) participants (%) and the “Drug-related: Decreased appetite” value (both, human, in vivo) was 8 (18.2) participants (%). For the same molecule, the “Drug-related: Dehydration” value (both, human, in vivo) was 2 (4.5) participants (%), the “Drug-related: Diarrhoea” value (both, human, in vivo) was 36 (81.8) participants (%) and the “Drug-related: Dry mouth” value (both, human, in vivo) was 2 (4.5) participants (%). For the same molecule, the “Drug-related: Dyspepsia” value (both, human, in vivo) was 2 (4.5) participants (%), the “Drug-related: Dysphagia” value (both, human, in vivo) was 2 (4.5) participants (%) and the “Drug-related: Fatigue” value (both, human, in vivo) was 14 (31.8) participants (%). For the same molecule, the “Drug-related: Gastroesophageal reflux disease” value (both, human, in vivo) was 3 (6.8) participants (%), the “Drug-related: Mucosal inflammation” value (both, human, in vivo) was 2 (4.5) participants (%) and the “Drug-related: Nausea” value (both, human, in vivo) was 34 (77.3) participants (%). The “Drug-related: Thrombocytopenia” value (both, human, in vivo) was 3 (6.8) participants (%), the “Drug-related: Vomiting” value (both, human, in vivo) was 35 (79.5) participants (%) and the “Drug-related: Weight decreased” value (both, human, in vivo) was 4 (9.1) participants (%). For the same molecule, the “Dysgeusia; All AEs” value (both, human, in vivo) was 1 (2.3) patients (%), the “Dysgeusia; Grade ≥3” value (both, human, in vivo) was 0 patients (%) and the “Dysphagia; All AEs” value (both, human, in vivo) was 2 (4.5) patients (%). The “Dysphagia; Grade ≥3” value (both, human, in vivo) was 0 patients (%), the “Dyspnea; All AEs” value (both, human, in vivo) was 6 (13.6) patients (%) and the “Dyspnea; Grade ≥3” value (both, human, in vivo) was 2 (4.5) patients (%). For the same molecule, the “Fatigue; All AEs” value (both, human, in vivo) was 17 (38.6) patients (%), the “Fatigue; Grade ≥3” value (both, human, in vivo) was 0 patients (%) and the “Grade ≥3: GGT increased” value (both, human, in vivo) was 2 (4.5) participants (%). The “Grade ≥3: Malignant neoplasm progression” value (both, human, in vivo) was 2 (4.5) participants (%), the “Grade ≥3: Pulmonary embolism” value (both, human, in vivo) was 2 (4.5) participants (%) and the “Grade ≥3: Thrombocytopenia” value (both, human, in vivo) was 2 (4.5) participants (%). For the same molecule, the “Headache; All AEs” value (both, human, in vivo) was 4 (9.1) patients (%), the “Headache; Grade ≥3” value (both, human, in vivo) was 0 patients (%) and the “Hyperglycemia; All AEs” value (both, human, in vivo) was 1 (2.3) patients (%). The “Hyperglycemia; Grade ≥3” value (both, human, in vivo) was 0 patients (%), the “Hypocalcaemia; All AEs” value (both, human, in vivo) was 2 (4.5) patients (%) and the “Hypocalcaemia; Grade ≥3” value (both, human, in vivo) was 0 patients (%). For the same molecule, the “Hypokalaemia; All AEs” value (both, human, in vivo) was 0 patients (%), the “Hypokalaemia; Grade ≥3” value (both, human, in vivo) was 0 patients (%) and the “Nausea; All AEs” value (both, human, in vivo) was 34 (77.3) patients (%). The “Nausea; Grade ≥3” value (both, human, in vivo) was 0 patients (%), the “Participants with any drug-related TEAE” value (both, human, in vivo) was 44 (100.0) participants (%) and the “Rash; All AEs” value (both, human, in vivo) was 1 (2.3) patients (%). For the same molecule, the “Rash; Grade ≥3” value (both, human, in vivo) was 0 patients (%), the “Stomatitis; All AEs” value (both, human, in vivo) was 1 (2.3) patients (%) and the “Stomatitis; Grade ≥3” value (both, human, in vivo) was 0 patients (%). The “Taste disorder; All AEs” value (both, human, in vivo) was 0 patients (%), the “Taste disorder; Grade ≥3” value (both, human, in vivo) was 0 patients (%) and the “Thrombocytopenia reported as Grade ≥3” value (both, human, in vivo) was 2 patients. For the same molecule, the “Upper respiratory tract infection; All AEs” value (both, human, in vivo) was 8 (18.2) patients (%), the “Upper respiratory tract infection; Grade ≥3” value (both, human, in vivo) was 0 patients (%) and the “Urinary tract infection; All AEs” value (both, human, in vivo) was 5 (11.4) patients (%). For the same molecule, the “Urinary tract infection; Grade ≥3” value (both, human, in vivo) was 0 patients (%), the “Vomiting; All AEs” value (both, human, in vivo) was 36 (81.8) patients (%) and the “Vomiting; Grade ≥3” value (both, human, in vivo) was 1 (2.3) patients (%). The “Weight decreased; All AEs” value (both, human, in vivo) was 4 (9.1) patients (%), the “Weight decreased; Grade ≥3” value (both, human, in vivo) was 1 (2.3) patients (%) and the “DLT: Decreased appetite” value (both, human, in vivo, 21 days) was 1 (3.0) patients (%). For the same molecule, the “DLT: Diarrhoea” value (both, human, in vivo, 21 days) was 1 (3.0) patients (%), the “DLT: Gastroesophageal reflux disease” value (both, human, in vivo, 21 days) was 1 (3.0) patients (%) and the “DLT: Nausea” value (both, human, in vivo, 21 days) was 1 (3.0) patients (%). For the same molecule, the “DLT: Oesophagitis” value (both, human, in vivo, 21 days) was 1 (3.0) patients (%), the “DLT: Stomatitis” value (both, human, in vivo, 21 days) was 1 (3.0) patients (%) and the “DLT: Thrombocytopenia” value (both, human, in vivo, 21 days) was 1 (3.0) patients (%). For the same molecule, the “DLT: Vomiting” value (both, human, in vivo, 21 days) was 2 (6.1) patients (%), the “DLT: Weight decreased” value (both, human, in vivo, 21 days) was 1 (3.0) patients (%) and the “Patients with a dose-limiting toxicity” value (both, human, in vivo, 21 days) was 3/6. For the same molecule, the “Patients with any DLT” value (both, human, in vivo, 21 days) was 6 (18.2) patients (%), the “Drug-related: Oral pain” value (both, human, in vivo, po) was 2 (4.5) participants (%) and the “Drop in platelet counts” value (during therapy, over the first 15 days then plateau, 240 mg OD and 360 mg OD) was roughly 20%. The “Maximum tolerated dose (MTD)” value (once daily, monotherapy) was 360 mg.
